A short description of data set [1]: Zeta-potential measurement. The data set is classed as physicochemical. The method, boiled down:
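PBS pH 7.4, 1 mg/mL peptide (DMSO stock), 1 d RT aggregation; diluted in 1 mM KCl pre-read; mobility → zeta (Smoluchowski); n = 3, 2 expts averaged.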

Data set [2] is described as follows: Conversion rate (CR) assay with fluorescamine. It is filed as physicochemical. Set-up: key to CR: % = 100−100×filtrate/original fluorescence intensity. The method, boiled down: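 1 mg/mL PNF solutions lyophilized and powders measured by diamond ATR FT-IR (2 cm^-1 resolution, 64 scans); β-sheet content calculated per a prior method. For CR, PNF solution centrifuged through 3 kDa MWCO filter (16200 x g, 4 °C, 45 min); filtrate and unfiltered sample lyophilized, dissolved in DMSO, reacted with fluorescamine.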

Setting [3] is: zeta-potential of peptide, source data of Figure 2C.
[4] abbreviates: zeta-potential of the peptide assemblies, mean, Figure 3A source data.
Setting [5] is: Fig. S7 panel B, conversion rate, fluorescamine assay.
Where [6] appears, read: conversion rate, fluorescamine assay.
Setting [7] is: zeta potential of peptide assemblies.

Where two headings read alike, the source gives them in different places.

As to HRRHFRHKITKKK, the Zeta-Pot. in data set [1] is -9.223. Also, the results for the “Zeta-Potential / mV” value in data set [1] (setting [3]) and in data set [1] (setting [4]) were -4.964 mV and -9.22 mV, respectively. In data set [2] (setting [5]), this substance gave a CR / % of 44.9%. This substance also yielded a CR in data set [2] (setting [6]) of 44.91.
For CRFRVPF the same measures were 4.413, 1.957 mV, 4.41 mV, 97.1% and 97.05.
For the substance QCKIKQIINMWQ [reference compound], the “Zeta Pot. / mV” value is recorded as 6.643 mV in data set [1]; 6.643 mV in data set [1] (mean, Std Zeta in next column); 6.643 mV in data set [1] (mean, Std in separate column). Moreover, the “Zeta category ( +1 = if > 4 mV;-1 = if < -4 mV; 0 = -4mV to 4 mV)” value in data set [1] and in data set [1] (category from zeta potential) was 1 (+1 = if > 4 mV) each time. The Zeta-Pot. in data set [1] was 6.643. Besides, in data set [1] (zeta potential of peptide, Fig S15 source data), the “Zeta-pot. / mV” value is listed as 6.643 mV. Further, the “Zeta-Potential / mV” value in data set [1] (setting [3]) is on record as 7.192 mV; in data set [1] (setting [4]), 6.64 mV. Further, the “Conversion Rate / %” value in data set [2] and in data set [2] (fluorescamine assay) was 76.98% throughout. Moreover, the CR / % in data set [2] (setting [5]) was found to be 77%. In data set [2] (setting [6]), this substance displayed a CR of 76.98.
Take KIKIQINM: in data set [1] (setting [7]), the Zeta-Pot. turned out to be 8.51. Moreover, the results for the “Zeta-Potential / mV” value in data set [1] (setting [3]) and in data set [1] (setting [4]) were 10.17 mV and 8.51 mV, respectively. This substance yielded a CR / % in data set [2] (setting [5]) of 64%. This substance also showed a CR in data set [2] (setting [6]) of 64.
For CKIKQIINM, the Zeta-Pot. in data set [1] is 12.9. Further, the “Zeta-Potential / mV” value in data set [1] (setting [3]) amounted to 13.87 mV; in data set [1] (setting [4]), 12.9 mV. In addition, in data set [2] (setting [5]), the CR / % is recorded as 45%. Moreover, the CR in data set [2] (setting [6]) was 45.
For HGEHGEHGE the same measures were -24.2, -14.63 mV, -24.2 mV, 42.9% and 42.88.
Turning to KNERIKNERI, the Zeta-Pot. in data set [1] is recorded as -16. The “Zeta-Potential / mV” value in data set [1] (setting [3]) is reported as -11.61 mV; in data set [1] (setting [4]) it was -16 mV. Moreover, the CR / % in data set [2] (setting [5]) was found to be 54.4%. The CR in data set [2] (setting [6]) is reported as 54.36.
The like results for HGDKCHGDKC were, in that order, -11.63, -8.035 mV, -11.63 mV, 37.4% and 37.3627.
For CRFRFQF the same measures were -2.097, 6.218 mV, -2.1 mV, 98.1% and 98.13.
The like results for RGECKFKFQF were, in that order, 23.97, 22.32 mV, 23.97 mV, 98.7% and 98.71.
For KAKAQANMWQ, the Zeta-Pot. in data set [1] is given as -19.63. In data set [1] (1 mg/mL in PBS pH 7.4 from 10 mg/mL DMSO stock, 1 d RT, 60 µL diluted in 600 µL 1 mM KCl, Zetasizer Nano ZS, Smoluchowski, mean of triplicate), the “Zeta pot. / mV” value is -19.6 mV. Further, the results for the “Zeta-Potential / mV” value in data set [1] (setting [3]) and in data set [1] (setting [4]) were -14.675 mV and -19.63 mV, respectively. In addition, the CR / % in data set [2] (setting [5]) was 56.2%; in data set [2] (conversion of monomer to nanostructures, 3 kDa MWCO filtration, fluorescamine, ex 365 / em 470 nm, triplicate), 56%. The substance further had a CR in data set [2] (setting [6]) of 56.24.
For CKFKFQF, the Zeta-Pot. in data set [1] came to 19.73. For the same substance, the “Zeta pot. / mV” value in data set [1] (zeta potential of the peptide assemblies) was determined as 19.73 mV. For the same substance, the “Zeta-Potential / mV” value amounted to 17.4 mV in data set [1] (setting [3]) and 19.73 mV in data set [1] (setting [4]). The CR / % in data set [2] (setting [5]) came to 95.6%. For the same substance, in data set [2] (setting [6]), the CR came to 95.56.
RGEKIKIQINM: the Zeta-Pot. in data set [1] was 15.3. Further, the “Zeta-Potential / mV” value in data set [1] (setting [3]) is 16.35 mV; in data set [1] (setting [4]), 15.3 mV. The CR / % in data set [2] (setting [5]) was 80.3%. Also, in data set [2] (setting [6]), the CR was 80.28.
Take KAKAQA: the Zeta-Pot. in data set [1] (setting [7]) is given as -14.08. Further, the “Zeta-Potential / mV” value is listed as -10.04 mV in data set [1] (setting [3]) and -14.08 mV in data set [1] (setting [4]). In data set [2] (setting [5]), the CR / % came out at 0.3%. In data set [2] (setting [6]), this substance registered a CR of 0.3138.
The like results for KIKQIINM were, in that order, 16.3, 18.1 mV, 16.3 mV, 43% and 43.
MDQMDQMDQMDQMDQ: the Zeta-Pot. in data set [1] is recorded as -14.98. The “Zeta-Potential / mV” value in data set [1] (setting [3]) is -10.69 mV; in data set [1] (setting [4]), -14.98 mV. In data set [2] (setting [5]), the CR / % was determined as 53%. In data set [2] (setting [6]), the CR worked out at 53.03.
On to CETMYDKILKNLSRSR, for which the Zeta-Pot. in data set [1] came out at 0.41. The figures for the “Zeta-Potential / mV” value in data set [1] (setting [3]) and in data set [1] (setting [4]) were -1.487 mV and 0.41 mV, respectively. The same substance showed a CR / % in data set [2] (setting [5]) of 98.9%. This substance also came in with a CR in data set [2] (setting [6]) of 98.89.
For CKFKFQFNMWQ the same measures were 17.03, 15.58 mV, 17.03 mV, 97.5% and 97.52.
The like results for CHLHLQL were, in that order, -12.27, -10.37 mV, -12.27 mV, 96.6% and 96.58.
On to HLHLPLL, for which the Zeta-Pot. in data set [1] is on record as -9.053. Besides, the “Zeta-Potential / mV” value in data set [1] (setting [3]) is on record as -5.247 mV; in data set [1] (setting [4]), -9.05 mV. The substance further had a CR / % in data set [2] (setting [5]) of 37.5%. This substance had a CR in data set [2] (setting [6]) of 37.51.
Take RLRLTLC: the Zeta-Pot. in data set [1] was 19.67. The “Zeta-Potential / mV” value in data set [1] (setting [3]) worked out at 20.73 mV; in data set [1] (setting [4]), 19.67 mV. Further, in data set [2] (setting [5]), the CR / % is 87.4%. In data set [2] (setting [6]), this substance came in with a CR of 87.44.
On to HIHIQIC, for which the Zeta-Pot. in data set [1] was -3.687. In addition, the “Zeta-Potential / mV” value in data set [1] (setting [3]) is -5.093 mV; in data set [1] (setting [4]), -3.69 mV. The same substance showed a CR / % in data set [2] (setting [5]) of 82.7%. The substance further registered a CR in data set [2] (setting [6]) of 82.72.
In the case of RGDKIRGDKI, the Zeta-Pot. in data set [1] is on record as -13.57. Further, the “Zeta-Potential / mV” value in data set [1] (setting [3]) is listed as -7.422 mV; in data set [1] (setting [4]) it was -13.57 mV. For the same substance, the CR / % in data set [2] (setting [5]) stood at 48.4%. Also, the CR in data set [2] (setting [6]) turned out to be 48.38.
For CKFKFQFNM the same measures were 15.13, 14.97 mV, 15.13 mV, 93.5% and 93.52.
For KFKFQFNMWQ the same measures were 25.4, 24.38 mV, 25.4 mV, 96.2% and 96.16.

The record behind these values is publication PMC10447463, “Data-mining unveils structure–property–activity correlation of viral infectivity enhancing self-assembling peptides” (Nature Communications, 2023).
